Laboratory results taken from patent US4021574A, “Antidandruff compositions containing 9-(4-lower alkoxy-2,3,6-trilower-alkylphenyl)-3,7-dimethyl-nona-2,4,6,8-tetraen-1-o ic acid lower alkyl amides” (Hoffmann-La Roche Inc., priority 1974, dated 1977).

Key:
LD50 s.c. in the mouse = conditions: in vivo, sc
corneocytes on the scalp = test: Antidandruff activity: number of corneocytes on the scalp of male volunteers; format: in vivo, human (male volunteers)
Experimental: Dermatology, Vol. 53, p. 107 (1969). Each volunteer was treated by applying to the scalp 15 ml. of 0.1% by weight solution thereof daily for seven days. The number of corneocytes on the scalp of each subject was determined one day before treatment began and 1 day after termination of treatment.

CCNC(=O)/C=C(C)/C=C/C=C(C)/C=C/c1c(C)cc(OC)c(C)c1C [9-(4-methoxy-2,3,6-trimethylphenyl)-3,7-dimethyl-nona-2,4,6,8-tetraen-1-oic acid ethyl amide]
LD50 (LD50 s.c. in the mouse): > 4000 mg/kg | Number of Corneocytes, one day post treatment (corneocytes on the scalp; Volunteer No. 1, 15 ml of 0.1% by weight solution on scalp daily for seven days, one day pre-treatment: 2100): 1400 | Number of Corneocytes, one day post treatment (corneocytes on the scalp; Volunteer No. 2, 15 ml of 0.1% by weight solution on scalp daily for seven days, one day pre-treatment: 5100): 1500 | Number of Corneocytes, one day post treatment (corneocytes on the scalp; Volunteer No. 3, 15 ml of 0.1% by weight solution on scalp daily for seven days, one day pre-treatment: 3250): 1600 | Number of Corneocytes, one day post treatment (corneocytes on the scalp; Volunteer No. 4, 15 ml of 0.1% by weight solution on scalp daily for seven days, one day pre-treatment: 1900): 1600 | decline in number of corneocytes (average) (corneocytes on the scalp; four volunteers, one day post treatment vs one day pre-treatment, 15 ml of 0.1% by weight solution daily for seven days): 50% | Number of Corneocytes, one day post treatment, Total (corneocytes on the scalp; total of four volunteers, 15 ml of 0.1% by weight solution on scalp daily for seven days, one day pre-treatment total: 12350): 6100
